The record followed here is patent US20250268980A1, “AN ANTICANCER THERAPY TARGETING RAS AND OTHER ONCOGENIC SIGNALS BY INHIBITION OF DYNAMIC BLEBBING AND/OR SEPTINS” (THE BOARD OF REGENTS OF THE UNIVERSITY OF TEXAS SYSTEM, priority 2022, published 2025).

Assay [1] relates to PI3K. Kind of assay: PI3K activity with Akt-PH-GFP biosensor in MV3 cells. The assay is classed as cell-based, human. The note with it: rounded, poorly-adhered MV3 cells. As for the experimental part: Cells Embedded in 3D Collagen.
Cells Grown in VitroGel Coffins. VitroGel coffins were prepared by embedding MV3 or A375 cells in VitroGel 3D or RGD at 1:1 dilution according to manufacturer's instructions (TheWell Biosciences, sku #TWG001). […] A 1:1 solution of VitroGel and VitroGel Dilution Solution was made and added to cell suspension at a ratio of 4:1 (VitroGel: cells) using gentle pipetting until well-mixed (with care taken not to form bubbles). Cell/VitroGel solution was transferred to an 8-well uncoated ibidi μ-slide (ibidi cat #80821) at 100 μl/well, spread over the bottom of wells with a pipette tip, and allowed to polymerize at room temperature for 15 minutes. […]
Cortical septin levels were quantified by measuring the mean cytoplasmic intensity of each cell using hand-drawn ROIs that excluded nuclei (performed with the FIJI ImageJ package), and then calculating for each cell its fraction of cortical voxels (intracellular voxels within 0.96 μm of the u-Shape3D-derived surface) that were higher than that cell's mean cytoplasmic intensity (performed using a MATLAB script). […] To quantify PI3K biosensor fluorescence signal, cells were segmented with u-shape3D and the intracellular signal was summed across the z-axis to yield a sum projection image (performed with the FIJI ImageJ package). […]

Assay [2] relates to NRAS. Kind of assay: NRAS-GFP enrichment at the cortex of MV3 cells. It is filed as cell-based, human. The conditions noted are these: voxels within 0.96 μm of surface. Here is the method: 3D Cell Image Analysis. Cell morphology and septin localization were analyzed principally via u-shape3D similar to the protocol described in Driscoll et al. Nature Methods. 16, 1037-1044 (2019), the disclosure of which is incorporated herein in its entirety. Briefly, 3D images were first deconvolved using either a Richardson-Lucy or Wiener algorithm with an experimentally measured point spread function. Cells were next segmented from the image background using u-shape3D's ‘twoLevel’ mode, which combines a straightforward Otsu threshold of the image to detect the outer cell surface with a blurred version of the image to segment the inside of the cell. The volume segmented from the blurred image was morphologically eroded to ensure the fidelity of the overall segmentation. Cell surfaces were then represented as triangle meshes, and the mean surface curvature at every triangle was calculated according to methods described in Driscoll et al. Nature Methods. 16, 1037-1044 (2019) and Elliott et al., Nat. […] Septin and NRAS localization was measured from fluorescence images by extending a sphere of either 1 μm (for septins) or 2 μm (for NRAS) about each mesh triangle and mapping to the triangle the average intensity both within that sphere and the cell. Image intensity was not depth normalized prior to analysis, but was instead measured from the raw, undeconvolved image. […]

As for `O=C(Nc1ccccc1)Nc1ccnc(Cl)c1` [FCF, forchlorfenuron], the PI3K activity entry in assay [1] is reported as “PI3K activity fell significantly”. In assay [2], the “enrichment of NRAS near the cell surface” value is listed as “significantly reduced enrichment of NRAS near the cell surface”.
